Literature values in patent US12409168B2, “Formulations of aminopenicillin and methods for solubilizing aminopenicillin” (VETERINARY PHARMACY CORPORATION, priority 2023, dated 2025).

CC1(C)S[C@@H]2[C@H](NC(=O)[C@H](N)c3ccc(O)cc3)C(=O)N2[C@H]1C(=O)O [Amoxicillin]
degradation at 24 hours (0.00015 mg/ml, 24 hours): no degradation
degradation to (potency remaining) at 24 hours (0.42 mg/ml, buffered solution, pH 8.04, 24 hours): 73%
